According to patent US12252472B1, “Barbituric acid derivatives, their preparation and use thereof as leukocyte transmigration inhibitors and for treating inflammatory diseases, autoimmune diseases and cancer” (BAR-ILAN UNIVERSITY, priority 2017, dated 2025):

Test system: B cells
Experiment: B-lymphocyte adhesion and transmigration, MesenFlow assay
Type: cell-based
Details: 30 μM
Method: Flow assays were conducted as described in a previous study (Bradfield, P. F., et al., JAM-C regulates unidirectional monocyte transendothelial migration in inflammation. Blood, 2007. 110(7): p. 2545-55). HUVECs were cultured at 1×10^5 cells/slide on Ibidi 6-chamber slides (80606; Ibidi) before treatment with TNFα (500 U/mL) for 6-10 hours. An individual chamber outlet was then attached to a calibrated pump (74 900; Cole Partner, Vernon Hills, IL) and flow was generated by perfusing wash buffer (M199 with 0.15% BSA) or a monocyte suspension (2.5×10^6 cells/mL) over the HUVEC monolayer. The flow rate was representative of shear rates in small venules (0.05 Pa). Observations made using phase-contrast microscopy (Model: Axiovert 100; Objective: 20×/0.3 NA air; Carl Zeiss) were recorded using a high-resolution camera (D70; Nikon, Zurich, Switzerland). Individual images were recorded every 30 seconds with Nikon capture software (v4.2) and compiled into movie sequences using Adobe Photoshop (CS6) and Image J (v1.5d), allowing analysis of individual monocytes over large areas. The tested compounds, e.g. compounds of the general Formula (I), were maintained at the specified concentration in all wash buffers throughout the course of the experiment. The compounds were preincubated separately on both HUVECs and monocytes 15 minutes prior to flow co-culture. […]

COC(=O)c1ccc(COc2c(C=C3C(=O)NC(=O)NC3=O)cccc2C(C)(C)C)cc1 [Formula 2, methyl 4-((2-(tert-butyl)-6-((2,4,6-trioxotetrahydropyrimidin-5(2H)-ylidene)methyl)phenoxy)methyl) benzoate]
B cell adhesion and transmigration: dramatic blocking effect
